Values of other authors, collected in patent US9125814B2, “Biocompatible crosslinked hydrogels, drug-loaded hydrogels and methods of using the same” (Angiotech Pharmaceuticals, Inc., priority 2008, dated 2015).

pKa: ~8.1
Compound: CCCCN1CCCCC1C(=O)Nc1c(C)cccc1C (racemic) [racemic bupivacaine, 1-butyl-N-(2,6-dimethylphenyl)piperidine-2-carboxamide]
